Measurements published in US20180030080A1, “Phosphoramidate nucleoside prodrug for treating viral diseases and cancer, processes for their preparation and their use” (ASAVI, LLC, priority 2016, published 2018).
Like-named read-outs stand apart in the source and are kept apart here.

Experiments:
HCV replicon = conditions: cited from earlier work
HCV replicon gT3a = assay: HCV replicon assay, genotype gT3a; format: cell-based; conditions: Hepatitis C virus, mean
Protocol: (§1) Anti-HCV activity (EC50) and cytotoxicity (CC50) of prodrugs of general formula 1. The HCV replicon assay was used to determine the antiviral activity of chemotherapeutic agents of general formula 1 (test compounds). Sovaldi (PSI-7977) was used as the reference drug. The test cell line used in the HCV Replicon Assay was the human hepatoma cell line Huh7 incorporating the HCV replicons synthesized by an outside vendor. 96-well plates were seeded with cells at a density of 7.5×10^3 cells per well in 50 μl of assay media. The compound stock solution was made up freshly in an assay medium (DMEM 1×, Cellgro; cat. #10-013-CV) as a 2× stock. A total of 11 serial 3-fold dilutions of test compounds were prepared from the 2× stock in the assay media ranging from 20 nM-0.2 pM final concentrations. At least 4 hours after seeding the cells, compound treatment was initiated by adding 50 μl of compound dilution to the plates. […] The final DMSO concentration was 0.5%. Cells and inhibitors were incubated for 3 days at 37° C./5% CO2. The media was removed from the plates by gentle tapping. The cells were fixed with 100 μl 1:1 acetone:methanol for 1 minute, washed three times with PBS buffer, and then blocked with 150 μl/well 10% Fetal Bovine Serum (FBS) in PBS for 1 hour at room temperature. The cells were then washed three times with PBS buffer and incubated with 100 μl/well anti-hepatitis C core mAb (Affinity BioReagents; cat. # MA1-080, 1 mg/ml stock diluted 1:4,000 in 10% FBS-PBS) for 2 hours at 37° C. Then, the cells were washed three times with PBS and incubated with 100 μl/well HRP-Goat Anti-Mouse antibody (diluted 1:3.500 in 10% FBS-PBS) for 1 hour at 37° C. […] The reaction was stopped with 2N H2SO4 (100 μl/well), and the absorbance was measured at A490 X on a Victor^3 V 1420 multilabel counter (Perkin Elmer). The EC50 values were calculated for test compounds from the resulting best-fit equations determined by Xlfit software (Table 1).

HCV replicon gT4a = assay: HCV replicon assay, genotype gT4a; format: cell-based; conditions: Hepatitis C virus, mean
Protocol: as §1

HCV replicon gT5a = assay: HCV replicon assay, genotype gT5a; format: cell-based; conditions: Hepatitis C virus, mean
Protocol: as §1

HCV replicon gT2a = assay: HCV replicon assay, genotype gT2a; format: cell-based; conditions: Hepatitis C virus, mean
Protocol: Anti-HCV activity (EC50) and cytotoxicity (CC50) of prodrugs of general formula 1. The HCV replicon assay was used to determine the antiviral activity of chemotherapeutic agents of general formula 1 (test compounds). Sovaldi (PSI-7977) was used as the reference drug. The test cell line used in the HCV Replicon Assay was the human hepatoma cell line Huh7 incorporating the HCV replicons synthesized by an outside vendor. 96-well plates were seeded with cells at a density of 7.5×10^3 cells per well in 50 μl of assay media. The compound stock solution was made up freshly in an assay medium (DMEM 1×, Cellgro; cat. #10-013-CV) as a 2× stock. A total of 11 serial 3-fold dilutions of test compounds were prepared from the 2× stock in the assay media ranging from 20 nM-0.2 pM final concentrations. At least 4 hours after seeding the cells, compound treatment was initiated by adding 50 μl of compound dilution to the plates. The final concentrations of compound therefore ranged from 10 nM to 0.1 pM when diluted 1:1 in culture media. The final DMSO concentration was 0.5%. Cells and inhibitors were incubated for 3 days at 37° C./5% CO2. The media was removed from the plates by gentle tapping. The cells were fixed with 100 μl 1:1 acetone:methanol for 1 minute, washed three times with PBS buffer, and then blocked with 150 μl/well 10% Fetal Bovine Serum (FBS) in PBS for 1 hour at room temperature. The cells were then washed three times with PBS buffer and incubated with 100 μl/well anti-hepatitis C core mAb (Affinity BioReagents; cat. # MA1-080, 1 mg/ml stock diluted 1:4,000 in 10% FBS-PBS) for 2 hours at 37° C. Then, the cells were washed three times with PBS and incubated with 100 μl/well HRP-Goat Anti-Mouse antibody (diluted 1:3.500 in 10% FBS-PBS) for 1 hour at 37° C. […] The reaction was stopped with 2N H2SO4 (100 μl/well), and the absorbance was measured at A490 X on a Victor^3 V 1420 multilabel counter (Perkin Elmer). The EC50 values were calculated for test compounds from the resulting best-fit equations determined by Xlfit software (Table 1).

HCV replicon gT1a = assay: HCV replicon assay, genotype gT1a; format: cell-based; conditions: Hepatitis C virus, mean
Protocol: as §1

HCV replicon gT1b = assay: HCV replicon assay, genotype gT1b; format: cell-based; conditions: Hepatitis C virus
Protocol: Anti-HCV activity (EC50) and cytotoxicity (CC50) of prodrugs of general formula 1. The HCV replicon assay was used to determine the antiviral activity of chemotherapeutic agents of general formula 1 (test compounds). Sovaldi (PSI-7977) was used as the reference drug. The test cell line used in the HCV Replicon Assay was the human hepatoma cell line Huh7 incorporating the HCV replicons synthesized by an outside vendor. 96-well plates were seeded with cells at a density of 7.5×10^3 cells per well in 50 μl of assay media. The compound stock solution was made up freshly in an assay medium (DMEM 1×, Cellgro; cat. #10-013-CV) as a 2× stock. A total of 11 serial 3-fold dilutions of test compounds were prepared from the 2× stock in the assay media ranging from 20 nM-0.2 pM final concentrations. At least 4 hours after seeding the cells, compound treatment was initiated by adding 50 μl of compound dilution to the plates. […] The final DMSO concentration was 0.5%. Cells and inhibitors were incubated for 3 days at 37° C./5% CO2. The media was removed from the plates by gentle tapping. The cells were fixed with 100 μl 1:1 acetone:methanol for 1 minute, washed three times with PBS buffer, and then blocked with 150 μl/well 10% Fetal Bovine Serum (FBS) in PBS for 1 hour at room temperature. The cells were then washed three times with PBS buffer and incubated with 100 μl/well anti-hepatitis C core mAb (Affinity BioReagents; cat. # MA1-080, 1 mg/ml stock diluted 1:4,000 in 10% FBS-PBS) for 2 hours at 37° C. Then, the cells were washed three times with PBS and incubated with 100 μl/well HRP-Goat Anti-Mouse antibody (diluted 1:3.500 in 10% FBS-PBS) for 1 hour at 37° C. The cells were then washed three times with PBS and developed with an OPD solution, 100 μl/well (1 OPD tablet+12 ml citrate/phosphate buffer+5 μl 30% H2O2 per plate), for 30 minutes in the dark at room temperature. The reaction was stopped with 2N H2SO4 (100 μl/well), and the absorbance was measured at A490 X on a Victor^3 V 1420 multilabel counter (Perkin Elmer). The EC50 values were calculated for test compounds from the resulting best-fit equations determined by Xlfit software (Table 1).

HBV = assay: Anti-HBV activity in the AD-38 cell line using real-time quantitative PCR; format: cell-based; conditions: against HBV; for EC50: AD-38 cells, 4 days, read-out: EC50; for inhibition, %: concentration not given
Protocol: Anti-HBV activity of prodrugs of general formula 1 determination in the AD-38 cell line using a real-time quanitative PCR. a) Cell cultures. HepG2 AD38 cell line, harboring an integrated over-the-length HBV genomic DNA (Lander S, et. al, Antimicrobal Agents and Chemotherapy, 1997, pg. 1715-1720) were provided by Dr. C. Seeger, Fox Chase Cancer Center, Philadelphia, Pa.). Cells were grown in complete media (DMEM/F12 with 2 mM L-Glutamine (Thermo Scientific, Cat #11320033), 10% Fetal Bovine Serum (ThermoFisher Scientific, Cat#), 1% Antibiotic-antimitotic solution (ThermoFisher Scientific, Cat#15240096), and 0.3 μg/ml tetracyclin (Sigma, Cat # T7660-5G). Cells were plated onto Corning Biocoat 96-well plates (Corning, Cat #356407) in 225 ul of complete media (without teracyclin), 20000 cells/well. The prodrugs of general formula 1 were dissolved first in DMSO (Sigma cat. D2650), then in DMEM/F12 and 9 serial 3× dilutions were prepared and added to cells in 22.5 μl. The final prodrugs concentrations ranged from 10 μM to 1 nM. Cells grown in the presence of tetracyclin were used as a positive control, as HBV replication in this cell line is turned off by thetracyclin. Cell plates were incubated for 4 days at 37 C, 5% CO2. b) HBV DNA isolation. After 4 days, viral DNA was isolated from culture supernatants using PureLink® Pro 96 Genomic DNA Purification Kit (ThermoFisher Scientific, Cat # K183104A), according to manufacturer's recommendations. Eluted DNA samples were stored at −20 C. c) Quantitative real-time PCR (qPCR). PCR was performed on the CFX96™ Real-Time System (Bio-Rad, Hercules, Calif.) using AmpliTaq Gold® DNA Polymerase (Applied Biosystems®).
Ct values (cycle threshold) were obtained for each prodrug sample and normalized to untreated cells, according to formula E=(1/(1+100%))̂(Ct[studied prodrug sample]−Ct[K-]), where E is a normalized expression of studied gene, Ct[K-] and Ct[studied prodrug sample] are Ct values of untreated cells and studied prodrug sample. Inhibition curves were obtained and EC50 values were calculated using the Graph Prizm software (Table 3).

HepG2 AD38 cell line = assay: Cytotoxicity (viability, CC50) reported with the anti-HBV test; format: cell-based; conditions: for viability, %: concentration not given

Structure (SMILES) | EC50 (HBV) | inhibition, % (HBV) | CC50 (HepG2 AD38 cell line) | viability, % (HepG2 AD38 cell line) | also measured
CC(C)(CO)C(=O)SCCOP(=O)(COC[C@H]1OC(n2cnc3c(=O)[nH]c(N)nc32)[C@](C)(O)[C@@H]1O)NCc1ccccc1 (stereo partly drawn) [IDX-184] |  |  |  |  | EC50 (HCV replicon): 400 nM
CC(C)OC(=O)[C@H](C)OC(=O)[C@H](C)NP(=O)(OC[C@H]1O[C@@H](n2ccc(=O)[nH]c2=O)[C@](C)(F)[C@@H]1O)Oc1ccccc1 (stereo partly drawn) [1.2(2), (S)-1-isopropyloxycarbonyl-ethyl (S)-2-{[(2R,3R,4R,5R)-5-(2,4-dioxo-3,4-dihydro-2H-pyrimidin-1-yl)-4-fluoro-3-hydroxy-4-methyl-tetrahydro-furan-2-ylmethoxy]-phenoxy-phosphorylamino}-propanoate] |  |  |  |  | IC50 (HCV replicon gT3a): 69 nM; IC50 (HCV replicon gT4a): 80 nM; IC50 (HCV replicon gT5a): 185 nM; IC50 (HCV replicon gT2a): 24 nM; IC50 (HCV replicon gT1a): 57 nM; IC50 (HCV replicon gT1b; GT1B, read-out: IC50 HCV gT1b 10% FBS (mean)): 18 nM; IC50 (HCV replicon gT1b; gT1b, 40% NHS, mean, read-out: IC50 HCV gT1b 40% NHS (mean)): 34 nM
CC(C)OC(=O)[C@H](C)OC(=O)[C@H](C)N[P@](=O)(OC[C@@H]1O[C@H](n2ccc(N)nc2=O)CS1)Oc1ccccc1 [1.2(92), (S)-1-isopropoxycarbonyl-ethyl (S)-2-{(S)-[(2R,5S)-5-(4-amino-2-oxo-2H-pyrimidin-1-yl)-[1,3]oxathiolan-2-ylmethoxy]-phenoxy-phosphorylamino}-propanoate] | 800 ± 610 nM | 86% | > 30000 nM | 103% | 
CC(C)OC(=O)[C@H](C)OC(=O)[C@H](C)N[P@](=O)(OC[C@@H]1O[C@H](n2cc(F)c(N)nc2=O)CS1)Oc1ccccc1 [1.2(93), (S)-1-isopropoxycarbonyl-ethyl (S)-2-{(S)-[(2R,5S)-5-(4-amino-5-fluoro-2-oxo-2H-pyrimidin-1-yl)-[1,3]oxathiolan-2-ylmethoxy]-phenoxy-phosphorylamino}-propanoate] | 40 ± 10 nM | 93% | > 30000 nM | 94% | 
C=C1[C@H](CO[P@@](=O)(N[C@@H](C)C(=O)O[C@@H](C)C(=O)OC(C)C)Oc2ccccc2)[C@@H](O)C[C@@H]1n1cnc2c(=O)[nH]c(N)nc21 [1.2(50), (S)-1-isopropoxycarbonyl-ethyl (S)-2-{(S)-[(1R,3S,5S)-3-(2-amino-6-oxo-1,6-dihydro-purin-9-yl)-5-hydroxy-2-methylene-cyclopentylmethoxy]-phenoxy-phosphorylamino}-propanoate] | 40 ± 30 nM | 100% | > 30000 nM | 95% | 
C=CCOC(=O)[C@H](C)N[P@](=O)(OC[C@@H]1O[C@H](n2cc(F)c(=O)[nH]c2=O)CS1)Oc1ccccc1 [1.2(97), allyl (S)-2-{(S)-[(2R,5S)-5-(5-fluoro-2,4-dioxo-3,4-dihydro-2H-pyrimidin-1-yl)-[1,3]oxathiolan-2-ylmethoxy]-phenoxy-phosphorylamino}-propanoate] | 370 ± 50 nM | 99% | > 30000 nM | 91% | 
